# From EP0396405A2, “Cosmetic formulations employing esterified alkoxylated polyol carriers” (ARCO CHEMICAL TECHNOLOGY INC., priority 1989, dated 1990)
# System: Hartley albino guinea pigs
# Test: Guinea pig maximization test (Magnusson and Kligman method), delayed contact hypersensitivity
# Assay type: in vivo
# Settings: primary challenge
# Method: The potential of EAP-1 to produce delayed contact hypersensitivity in guinea pigs was evaluated by the Magnusson and Kligman Maximization Test Method.
# On day zero, twenty Hartley albino guinea pigs plus ten positive control animals, and ten vehicle control animals each received six intradermal injections, i.e. duplicate injections (0.1 ml;injection) for each of the three test groups: test material (undiluted), formaldehyde (5.0% w/v in distilled water) and acetone, respectively. Each animal also received two intradermal injections of 50% v/v Freund's Complete Adjuvant (FCA) in distilled water and two injections of the respective test or control materials in the FCA/distilled water emulsion.
# On day 6, these same groups of animals were exposed topically to a preparation of their respective test (50% w/v in acetone) or control material under ELASTOPLAST@ (a product of Beiersdorf, Inc.) bandage wrappings for approximately 48 hours.
# On day 19, all animals were topically challenged at a naive (not previously exposed) skin site using a preparation of their respective test or control material under ELASTOPLAST@ bandage wrappings for approximately 24 hours. Naive control animals were patched identically to and concurrently with the test and positive.
# On the day after removal, the sites were depilated. Later that day and again on the next day, the sites were graded for erythema (redness). […]
smiles,measurement,setting,value
"C=O [positive control, formaldehyde]",sensitization classification,positive control group,extreme sensitization
same,incidence of grade 1 responses or greater,positive control group (10/10),100%
